How the values were obtained:
[1] = biological target: Sodium-dependent noradrenaline transporter (Homo sapiens, UniProt P23975)
Description: Inhibitory activity against norepinephrine (NE) uptake in rat whole brain synaptosome preparation

[2] = biological target: Muscarinic acetylcholine receptor; type: cell membranes, Membrane
Description: Inhibition of [3H]quinuclidinyl benzilate (QNB) binding from rat forebrain membranes in the absence of Zn

Mus musculus [3] = test: Antagonistic activity against Scopolamine induced behavioral deficits in mice at dose 1.25 mg/kg sc; 1/6; type: functional
Mus musculus [4] = test: Antagonistic activity against Scopolamine induced behavioral deficits in mice at dose 2.5 mg/kg sc; type: functional; settings: route subcutaneous
Mus musculus [5] = organism: Mus musculus; test: animal or person
Description: Effective dose against administration in mice

[6] = biological target: Muscarinic acetylcholine receptor; type: cell membranes, Membrane; remark: listed apart in the source
Description: Inhibition of [3H]quinuclidinyl benzilate (QNB) binding from rat forebrain membranes in the presence of Zn

Mus musculus [7] = organism: Mus musculus; test: Antagonistic activity against Scopolamine induced behavioral deficits in mice; 0/9; type: functional
Acetylcholinesterase = biological target: T1, Acetylcholinesterase (Rattus norvegicus, UniProt P37136)
T1 sequence (P37136 whole entry): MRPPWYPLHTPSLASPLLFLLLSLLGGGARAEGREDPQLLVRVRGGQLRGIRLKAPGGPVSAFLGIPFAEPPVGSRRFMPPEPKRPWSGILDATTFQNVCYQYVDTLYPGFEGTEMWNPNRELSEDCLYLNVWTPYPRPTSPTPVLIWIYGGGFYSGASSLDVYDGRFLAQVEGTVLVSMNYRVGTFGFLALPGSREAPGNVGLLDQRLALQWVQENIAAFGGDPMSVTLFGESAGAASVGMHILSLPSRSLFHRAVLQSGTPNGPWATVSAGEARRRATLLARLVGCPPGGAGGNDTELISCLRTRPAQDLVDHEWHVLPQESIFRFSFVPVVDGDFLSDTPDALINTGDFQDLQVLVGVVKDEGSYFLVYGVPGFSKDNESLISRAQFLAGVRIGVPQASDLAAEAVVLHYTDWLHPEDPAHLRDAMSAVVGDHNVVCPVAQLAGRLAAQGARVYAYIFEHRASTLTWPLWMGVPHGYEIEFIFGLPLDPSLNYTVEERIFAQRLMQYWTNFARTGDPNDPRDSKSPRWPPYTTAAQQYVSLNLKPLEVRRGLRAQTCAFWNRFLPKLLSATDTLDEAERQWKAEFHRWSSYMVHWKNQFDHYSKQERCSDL
Description: Inhibitory activity against acetylcholinesterase in rat striatal preparation

[8] = biological target: T2, Adrenergic receptor alpha-2 (Rattus norvegicus, UniProt P22086+P19328+P22909); test: Inhibitory activity against [3H]clonidine binding to Alpha-2 adrenergic receptor in rat cortex
T2 sequence (P22086 whole entry): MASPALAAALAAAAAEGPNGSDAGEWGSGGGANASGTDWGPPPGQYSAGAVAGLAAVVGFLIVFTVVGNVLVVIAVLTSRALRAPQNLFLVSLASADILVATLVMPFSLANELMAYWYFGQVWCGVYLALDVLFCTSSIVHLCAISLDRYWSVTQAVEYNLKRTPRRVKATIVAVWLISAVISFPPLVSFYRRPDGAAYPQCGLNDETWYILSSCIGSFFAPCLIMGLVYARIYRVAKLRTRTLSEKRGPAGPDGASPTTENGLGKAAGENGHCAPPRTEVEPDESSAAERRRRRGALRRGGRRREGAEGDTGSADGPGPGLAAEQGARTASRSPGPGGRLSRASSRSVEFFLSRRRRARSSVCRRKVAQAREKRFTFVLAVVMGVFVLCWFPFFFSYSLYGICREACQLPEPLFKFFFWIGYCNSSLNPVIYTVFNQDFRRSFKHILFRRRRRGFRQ
T2 sequence (P19328 whole entry): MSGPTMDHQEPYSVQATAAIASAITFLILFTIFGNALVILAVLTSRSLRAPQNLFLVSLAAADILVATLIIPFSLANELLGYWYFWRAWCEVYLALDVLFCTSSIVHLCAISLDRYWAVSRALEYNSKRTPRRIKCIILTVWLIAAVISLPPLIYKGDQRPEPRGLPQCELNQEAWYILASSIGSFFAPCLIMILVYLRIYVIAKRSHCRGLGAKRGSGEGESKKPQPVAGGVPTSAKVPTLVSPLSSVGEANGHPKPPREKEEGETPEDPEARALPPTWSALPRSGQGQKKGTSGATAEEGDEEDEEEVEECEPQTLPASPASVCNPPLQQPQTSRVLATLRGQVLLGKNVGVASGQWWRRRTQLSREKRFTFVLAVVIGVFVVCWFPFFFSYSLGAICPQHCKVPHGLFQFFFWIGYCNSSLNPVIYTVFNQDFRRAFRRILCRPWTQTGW
T2 sequence (P22909 whole entry): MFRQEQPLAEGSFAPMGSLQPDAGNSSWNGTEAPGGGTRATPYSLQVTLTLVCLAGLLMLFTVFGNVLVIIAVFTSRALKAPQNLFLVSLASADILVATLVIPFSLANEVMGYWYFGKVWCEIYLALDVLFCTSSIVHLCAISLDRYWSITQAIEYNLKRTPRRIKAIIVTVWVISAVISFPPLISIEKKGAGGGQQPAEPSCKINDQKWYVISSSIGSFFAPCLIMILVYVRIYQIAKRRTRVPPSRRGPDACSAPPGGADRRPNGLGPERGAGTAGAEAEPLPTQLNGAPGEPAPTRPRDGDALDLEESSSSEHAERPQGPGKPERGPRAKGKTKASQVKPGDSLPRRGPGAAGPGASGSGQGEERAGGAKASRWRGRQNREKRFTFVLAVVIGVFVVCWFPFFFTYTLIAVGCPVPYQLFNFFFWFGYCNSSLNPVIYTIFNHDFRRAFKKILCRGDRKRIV

Mus musculus [9] = test: Antagonistic activity against Scopolamine induced behavioral deficits in mice at dose 0.16 mg/kg sc; type: functional; settings: route subcutaneous
Mus musculus [10] = organism: Mus musculus; test: Antagonistic activity against Scopolamine induced behavioral deficits in mice; 1/10; type: functional
Mus musculus [11] = organism: Mus musculus; test: Antagonistic activity against Scopolamine induced behavioral deficits in mice; 0/3; type: functional
Mus musculus [12] = test: Antagonistic activity against Scopolamine induced behavioral deficits in mice at dose 1.25 mg/kg sc; type: functional; settings: route subcutaneous
Mus musculus [13] = organism: Mus musculus; settings: dose 2.5 mg/kg; route subcutaneous
Mus musculus [14] = organism: Mus musculus; test: Antagonistic activity against Scopolamine induced behavioral deficits in mice; 5/6; type: functional
Mus musculus [15] = organism: Mus musculus; settings: dose 5 mg/kg; route subcutaneous
Mus musculus [16] = test: Antagonistic activity against Scopolamine induced behavioral deficits in mice at dose […] sc; type: functional; settings: route subcutaneous
Mus musculus [17] = organism: Mus musculus
Mus musculus [18] = test: Antagonistic activity against Scopolamine induced behavioral deficits in mice at dose 0.63 mg/kg sc; type: functional; settings: route subcutaneous
Mus musculus [19] = organism: Mus musculus; test: Antagonistic activity against Scopolamine induced behavioral deficits in mice; type: functional
Mus musculus [20] = test: Antagonistic activity against Scopolamine induced behavioral deficits in mice at dose 0.04 mg/kg sc; type: functional; settings: route subcutaneous
Mus musculus [21] = test: Antagonistic activity against Scopolamine induced behavioral deficits in mice at dose 5.0 mg/kg sc; type: functional; settings: route subcutaneous
Mus musculus [22] = organism: Mus musculus; test: Antagonistic activity against Scopolamine induced behavioral deficits in mice; 4/6; type: functional
Mus musculus [23] = organism: Mus musculus; settings: dose 0.63 mg/kg; route subcutaneous
Mus musculus [24] = test: Antagonistic activity against Scopolamine induced behavioral deficits in mice at dose 1.0 mg/kg sc; type: functional; settings: route subcutaneous
Mus musculus [25] = organism: Mus musculus; test: Antagonistic activity against Scopolamine induced behavioral deficits in mice; 2/3; type: functional
Mus musculus [26] = test: Antagonistic activity against Scopolamine induced behavioral deficits in mice at dose 0.3 mg/kg sc; type: functional; settings: route subcutaneous
Mus musculus [27] = test: Antagonistic activity against Scopolamine induced behavioral deficits in mice at dose 1.25 mg/kg sc; 0/6; type: functional
Mus musculus [28] = test: Antagonistic activity against Scopolamine induced behavioral deficits in mice at dose 5.0 mg/kg sc; 1/3; type: functional
Mus musculus [29] = organism: Mus musculus; test: Antagonistic activity against Scopolamine induced behavioral deficits in mice; 1/3; type: functional
Mus musculus [30] = test: Antagonistic activity against Scopolamine induced behavioral deficits in mice at dose 5.0 mg/kg sc; 2/6; type: functional
Mus musculus [31] = organism: Mus musculus; test: Antagonistic activity against Scopolamine induced behavioral deficits in mice; 3/9; type: functional
Mus musculus [32] = test: Antagonistic activity against Scopolamine induced behavioral deficits in mice at dose 10 mg/kg sc; type: functional; settings: route subcutaneous
Mus musculus [33] = test: Antagonistic activity against Scopolamine induced behavioral deficits in mice at dose 20 mg/kg sc; type: functional; settings: route subcutaneous

Sequence of Sodium-dependent noradrenaline transporter (P23975 whole entry): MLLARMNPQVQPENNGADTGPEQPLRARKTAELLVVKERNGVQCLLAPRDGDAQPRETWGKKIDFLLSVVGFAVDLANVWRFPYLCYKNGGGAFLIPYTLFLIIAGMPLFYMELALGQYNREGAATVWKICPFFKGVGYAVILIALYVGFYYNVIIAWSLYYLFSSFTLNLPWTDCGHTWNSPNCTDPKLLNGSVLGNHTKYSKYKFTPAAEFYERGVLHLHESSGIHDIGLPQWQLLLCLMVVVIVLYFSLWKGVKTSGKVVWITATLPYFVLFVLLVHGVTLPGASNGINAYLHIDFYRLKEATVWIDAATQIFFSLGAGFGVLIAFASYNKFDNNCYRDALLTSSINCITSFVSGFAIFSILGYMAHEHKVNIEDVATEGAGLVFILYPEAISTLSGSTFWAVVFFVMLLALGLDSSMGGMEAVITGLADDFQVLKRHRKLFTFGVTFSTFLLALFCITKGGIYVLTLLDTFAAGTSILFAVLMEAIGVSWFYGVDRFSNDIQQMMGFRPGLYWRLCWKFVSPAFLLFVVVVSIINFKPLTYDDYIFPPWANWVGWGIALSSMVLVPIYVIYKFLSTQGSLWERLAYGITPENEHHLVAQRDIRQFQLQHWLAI

| Compound | IC50 [1] [µM] | IC50 [2] [µM] | ED50 (Mus musculus [5]) [mg/kg] | IC50 [6] [µM] | IC50 (Acetylcholinesterase) [µM] | further results |
| --- | --- | --- | --- | --- | --- | --- |
| CCCN(c1ccnc2cc(Cl)ccc12)n1ccc2ccccc21.O=C(O)/C=C/C(=O)O | 6.9 | > 300 | > 20 | 180 | – | Antagonism (Mus musculus [3]): 1; Response (Mus musculus [4]): 29% |
| CCCN(c1ccncc1)n1cc(CC)c2ccccc21 | 2.1 | 2.7 | 0.44 | 0.71 | 20 | Antagonism (Mus musculus [7]): 0; IC50 [8]: 3.6 µM |
| CCCN(c1ccncc1)n1cc(C(C)=O)c2ccccc21 | 3.3 | 29 | 5 | 2.7 | 58 | Response (Mus musculus [9]): 20%; Antagonism (Mus musculus [10]): 1 |
| Cc1cc2ccccc2n1Nc1ccncc1 | 3.6 | 60 | < 10 | 29 | > 100 | Antagonism (Mus musculus [11]): 0 |
| CC(C)N(c1ccncc1)n1ccc2ccccc21 | 2.3 | 6 | 2.9 | 0.63 | > 100 | Response (Mus musculus [12]): 36%; Response (Mus musculus [13]): 20%; Antagonism (Mus musculus [14]): 5; Response (Mus musculus [9]): 33%; Response (Mus musculus [15]): 20%; IC50 [8]: > 10 µM; Response (Mus musculus [16]): 60% |
| CCCN(c1cc(Cl)ncn1)n1ccc2ccccc21 | 2.6 | > 1000 | > 20 | > 1000 | > 100 | Antagonism (Mus musculus [17]): 3; Response (Mus musculus [4]): 33%; Response (Mus musculus [18]): 33% |
| CCCCN(c1ccncc1)n1ccc2ccccc21 | 0.43 | 4 | 5.4 | 1.5 | 62 | Agonism (Mus musculus [19]): 1; IC50 [8]: 0.63 µM; Response (Mus musculus [20]): 23% |
| CCCN(c1ccncc1)n1ccc2cc(OC)ccc21 | 0.57 | 14 | > 20 | 4.8 | > 100 | Response (Mus musculus [21]): 36%; Response (Mus musculus [9]): 20%; Response (Mus musculus [16]): 20%; Antagonism (Mus musculus [22]): 4; Response (Mus musculus [18]): 26% |
| CN(c1ccncc1)n1ccc2cc([N+](=O)[O-])ccc21 | > 30 | 29 | > 20 | 7.6 | > 100 | Response (Mus musculus [12]): 20%; Response (Mus musculus [21]): 20%; Response (Mus musculus [9]): 20%; Response (Mus musculus [23]): 20%; Antagonism (Mus musculus [22]): 4 |
| CCCN(c1ccncc1)n1cc(C#N)c2ccccc21 | 0.75 | 8.6 | 9.2 | 3.5 | – | Response (Mus musculus [12]): 29%; Antagonism (Mus musculus [14]): 5; Response (Mus musculus [21]): 27%; Response (Mus musculus [9]): 40%; Response (Mus musculus [16]): 53%; Response (Mus musculus [18]): 36% |
| c1ccc2c(c1)ccn2Cc1ccncc1 | > 20 | 223 | – | 84 | – | Response (Mus musculus [24]): 20%; Antagonism (Mus musculus [25]): 2; Response (Mus musculus [26]): 33% |
| CCCN(c1ccncc1)n1ncc2ccccc21.O=C(O)/C=C/C(=O)O | 1.4 | 13 | 11 | 4 | > 100 | Antagonism (Mus musculus [27]): 0 |
| CCCC(c1ccncc1)n1ccc2ccccc21 (centres undefined) | 0.67 | 142 | – | 29 | – | Antagonism (Mus musculus [28]): 1; Response (Mus musculus [26]): 20% |
| CN(c1ccncc1)n1ccc2cc(Br)ccc21 | 13 | 4.6 | > 20 | 2.5 | > 100 | Response (Mus musculus [24]): 44%; Antagonism (Mus musculus [29]): 1 |
| CCCN(c1ccncc1)n1ccc2cc(Br)ccc21 | 2.6 | 4.4 | > 20 | 1.6 | > 100 | Response (Mus musculus [15]): 33%; Antagonism (Mus musculus [30]): 2; Response (Mus musculus [23]): 33% |
| C#CCN(c1ccncc1)n1ccc2ccccc21 | 0.68 | 11 | 3.9 | 2.5 | > 100 | Antagonism (Mus musculus [31]): 3; Response (Mus musculus [13]): 21%; Response (Mus musculus [32]): 21%; IC50 [8]: 0.5 µM; Response (Mus musculus [33]): 27% |
| Clc1ccc2c(ccn2Nc2ccncc2)c1 | > 20 | 42 | > 20 | 5.9 | > 100 | Antagonism (Mus musculus [11]): 0 |
| c1ccc2c(c1)OCC(C1=NCCN1)O2 (centres undefined) [IDAZOXAN] | > 20 | – | – | – | – | Response (Mus musculus [12]): 47%; Response (Mus musculus [13]): 53%; Antagonism (Mus musculus [14]): 5; Response (Mus musculus [15]): 33%; Response (Mus musculus [23]): 43%; Response (Mus musculus [16]): 60% |

Reference: ChEMBL document CHEMBL1129670, “Synthesis and structure-activity relationships of N-propyl-N-(4-pyridinyl)-1H-indol-1-amine (besipirdine) and related analogs as potential therapeutic agents for Alzheimer's disease” (J Med Chem, 1996)
